Results on 1 compound are retold here after patent US9931331B2 (priority 2013, dated 2018).

Values joined by “and” are separate entries in the source; they are usually repeats but may differ in a detail not shown here. Equal values may be shown once.

In data set [1] the test system is cervical cancer cell (HeLa). Put plainly: Cell viability (calcein-AM / ethidium homodimer-1), HeLa. The conditions noted are these: 24 h. As for the experimental part: (§1) Strains of cervical cancer cell (HeLa), kidney cancer cell (Caki-1), brain tumor cell (T98G), breast cancer cell (MDA-MB 435S), and colon cancer cell (DLD-1), multiple myeloma cell (RPMI-8226), and a strain of normal breast epithelial cell (MCF-10A) were available from ATCC (American Type Culture Collection, USA). The strains of cervical cancer cell (HeLa), kidney cancer cell (Caki-1), brain tumor cell (T98G), breast cancer cell (MDA-MB 435S), and colon cancer cell (DLD-1) were cultured by using a DMEM medium including 10% fetal bovine serum (FBS), 2 mM of L-glutamin, 100 i.u./ml of penicillin, and […] of streptomycin for the culture and maintenance; multiple myeloma cell (RPMI-8226) was cultured by using a RPMI1640 medium including 10% FBS, 100 i.u./ml of penicillin, and […] of streptomycin; and the strain of normal breast epithelial cell (MCF-10A) was cultured by using a mammary epithelial growth medium (MEGM) including a bovine pituitary extract, insulin, human epidermal growth factor, hydrocortisone, and antibiotics, and the culture conditions included 37° C. and 5% CO2 in an incubator.
(§2) Then, the cells were stained by using 2 μM calcein-AM and 4 μM ethidium homodimer-1, and cell viability was measured by using a fluorescent microscope (Axiovert 200M, available from Carl Zeiss, Jena, Germany).

In data set [2] the test system is kidney cancer cell (Caki-1). Put plainly: Cell viability (calcein-AM / ethidium homodimer-1), Caki-1. The conditions noted are these: Homo sapiens, CAKI-1, 24 h. As to the method:
as §1, §2

For a further data set, the system named is brain tumor cell (T98G). Nature of the data set: Cell viability (calcein-AM / ethidium homodimer-1), T98G. The note with it: 24 h. As to the method:
as §1, §2

Data set [3] deals with breast cancer cell (MDA-MB 435S). Nature of the data set: Cell viability (calcein-AM / ethidium homodimer-1), MDA-MB 435S. The note with it: Homo sapiens, MDA-MB-435S, 24 h. As to the method: as §1, §2
The test system of data set [4] is colon cancer cell (DLD-1). Nature of the data set: Cell viability (calcein-AM / ethidium homodimer-1), DLD-1. The note with it: Homo sapiens, DLD-1, 24 h, read-out: Cell viability. As to the method:
as §1, §2

Data set [5] has as its system multiple myeloma cell (RPMI-8226). Put plainly: Cell viability (calcein-AM / ethidium homodimer-1), RPMI-8226. The note with it: Homo sapiens, RPMI-8226, 24 h, read-out: Cell viability. As to the method:
as §1, §2

A short description of data set [6]: Cell viability (calcein-AM / ethidium homodimer-1), MCF-10A. The note with it: human, Cell viability, MCF-10A, 24 h. As to the method: as §1, §2
Data set [7] concerns normal breast epithelial cell (MCF-10A). The data set is described as above. The note with it: MCF-10A, 24 h. As for the experimental part:
as §1, §2

The mark [8] stands for this setting: Homo sapiens, read-out: cell viability decreased.

As for `CN(C)C(=O)C(CCN1CCC(O)(c2ccc(Cl)cc2)CC1)(c1ccccc1)c1ccccc1` [Loperamide], the viability at 20 µM is 99.7% in data set [1] (Homo sapiens, read-out: Cell viability, HeLa, loperamide 20 μM alone); 100% in data set [2] (read-out: Cell viability); 99% in the data set on brain tumor cell (T98G) (Homo sapiens, read-out: Cell viability, T98G, loperamide 20 μM alone); 78% in data set [3] (read-out: Cell viability); 100% in data set [4]. For the same compound, the viability at 40 µM was 75.1% in data set [1] (Homo sapiens, read-out: Cell viability, HeLa, loperamide 40 μM alone) and 65.1% in data set [2] (read-out: Cell viability). The cytotoxicity at 40 µM in data set [1] (setting [8]) is around 25%; in data set [2] (read-out: cell viability decreased), around 35%. The Cell viability in data set [1] (loperamide 20 μM alone) was 99.81; with brain tumor cell (T98G) (loperamide 10 μM alone), 94.43; in data set [7] (loperamide 10 μM alone), 95.21 and 100.29 and 95.11; in data set [7] (loperamide 20 μM alone), 99.25 and 94.65 and 100.37. In addition, the viability at 10 µM is 100% in the data set on brain tumor cell (T98G) (Homo sapiens, read-out: Cell viability, T98G, loperamide 10 μM alone); 100% in data set [3] (read-out: Cell viability); 100% in data set [4]; 89.4% in data set [5]. The cytotoxicity at 20 µM in the data set with brain tumor cell (T98G) (setting [8]) is around 10%; in data set [3] (read-out: cell viability decreased, MDA-MB 435S, loperamide alone 20 μM), around 22%. In the data set with brain tumor cell (T98G) (loperamide alone up to 20 μM), the cancer cell toxicity entry is reported as “did not exhibit significant cancer cell toxicity”. In data set [5], the viability at 5 µM is 98.6%. For the same compound, the viability at 24 h, 10 μM in data set [6] (loperamide 10 μM alone) is 97.7%. Further, in data set [6] (loperamide 20 μM alone), the viability at 24 h, 20 μM was 94.6%.

Usually viability stands for a read-out of living cells in per cent, often relative to untreated cells.
